Test results: ChEMBL document CHEMBL1201861, “Genomics of Drug Sensitity in Cancer screening data, Wellcome Trust Sanger Institute”

Tests used:
Assay in all cases: cells
MZ1-PC = format: functional, cell-based, Homo sapiens; conditions: Homo sapiens, MZ1-PC;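 note: cell viability assay measuring growth inhibition of human MZ1-PC cells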
Description: SANGER: Inhibition of human MZ1-PC cell growth in a cell viability assay.

DU-4475 = format: functional, cell-based, Homo sapiens; conditions: Homo sapiens, DU-4475
Description: SANGER: Inhibition of human DU-4475 cell growth in a cell viability assay.

SK-LMS-1 = format: functional, cell-based, Homo sapiens; conditions: Homo sapiens, SK-LMS-1;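 note: growth inhibition of human SK-LMS-1 cells, read out with a cell viability assay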
Description: SANGER: Inhibition of human SK-LMS-1 cell growth in a cell viability assay.

EKVX = format: functional, cell-based, Homo sapiens; conditions: Homo sapiens, EKVX;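 note: growth inhibition of human EKVX cells, read out with a cell viability assay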
Description: SANGER: Inhibition of human EKVX cell growth in a cell viability assay.

TE-8 = format: functional, cell-based, Homo sapiens; conditions: Homo sapiens, TE-8;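 note: growth inhibition of TE-8 cells, measured with a cell viability readout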
Description: SANGER: Inhibition of human TE-8 cell growth in a cell viability assay.

GCIY = format: functional, cell-based, Homo sapiens; conditions: Homo sapiens, GCIY;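 note: growth inhibition of the human GCIY cell line, read out by a cell viability assay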
Description: SANGER: Inhibition of human GCIY cell growth in a cell viability assay.

ES6 = format: functional, cell-based; conditions: Homo sapiens;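 note: growth inhibition of human ES6 cells, read out with a cell viability assay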
Description: SANGER: Inhibition of human ES6 cell growth in a cell viability assay.

LS-513 = format: functional, cell-based, Homo sapiens; conditions: Homo sapiens, LS-513
Description: SANGER: Inhibition of human LS-513 cell growth in a cell viability assay.

CW-2 = format: functional, cell-based, Homo sapiens; conditions: Homo sapiens, CW-2;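 note: growth inhibition of CW-2 cells, read out by a cell viability assay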
Description: SANGER: Inhibition of human CW-2 cell growth in a cell viability assay.

KARPAS-299 = format: functional, cell-based, Homo sapiens; conditions: Homo sapiens, KARPAS-299
Description: SANGER: Inhibition of human KARPAS-299 cell growth in a cell viability assay.

SCH = format: functional, cell-based, Homo sapiens; conditions: Homo sapiens, SCH;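 note: growth inhibition of human SCH cells, read out in a cell viability assay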
Description: SANGER: Inhibition of human SCH cell growth in a cell viability assay.

COLO-800 = format: functional, cell-based, Homo sapiens; conditions: Homo sapiens, COLO-800;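 note: growth inhibition of COLO-800 cells, read out with a cell viability assay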
Description: SANGER: Inhibition of human COLO-800 cell growth in a cell viability assay.

MOLT-4 = format: functional, cell-based, Homo sapiens; conditions: Homo sapiens, MOLT-4;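 note: growth inhibition of MOLT-4 cells, determined with a cell viability readout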
Description: SANGER: Inhibition of human MOLT-4 cell growth in a cell viability assay.

ES4 = format: functional, cell-based, Homo sapiens; conditions: Homo sapiens, ES4;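 note: growth inhibition of human ES4 cells, read out by a cell viability assay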
Description: SANGER: Inhibition of human ES4 cell growth in a cell viability assay.

HCC2157 = format: functional, cell-based, Homo sapiens; conditions: Homo sapiens, HCC2157;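 note: growth inhibition of the cancer cell line, read out as cell viability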
Description: SANGER: Inhibition of human HCC2157 cell growth in a cell viability assay.

NCI-H1770 = format: functional, cell-based, Homo sapiens; conditions: Homo sapiens, NCI-H1770;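 note: growth inhibition of NCI-H1770 cells determined with a viability readout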
Description: SANGER: Inhibition of human NCI-H1770 cell growth in a cell viability assay.

A3-KAW = format: functional, cell-based, Homo sapiens; conditions: Homo sapiens, A3-KAW;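 note: growth inhibition of human A3-KAW cells, read out with a cell viability assay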
Description: SANGER: Inhibition of human A3-KAW cell growth in a cell viability assay.

NCI-H2126 = format: functional, cell-based, Homo sapiens; conditions: Homo sapiens, NCI-H2126;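 note: growth inhibition of the cancer cell line, determined with a cell viability readout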
Description: SANGER: Inhibition of human NCI-H2126 cell growth in a cell viability assay.

ES5 = format: functional, cell-based, Homo sapiens; conditions: Homo sapiens, ES5;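 note: growth inhibition of human ES5 cells, read out by a cell viability assay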
Description: SANGER: Inhibition of human ES5 cell growth in a cell viability assay.

P30-OHK = format: functional, cell-based, Homo sapiens; conditions: Homo sapiens, P30-OHK;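 note: growth inhibition of the P30-OHK cell line, read out with a cell viability assay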
Description: SANGER: Inhibition of human P30-OHK cell growth in a cell viability assay.

SK-PN-DW = format: functional, cell-based, Homo sapiens; conditions: Homo sapiens, SK-PN-DW;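 note: growth inhibition measured with a viability assay on these cells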
Description: SANGER: Inhibition of human SK-PN-DW cell growth in a cell viability assay.

NCI-H23 = format: functional, cell-based, Homo sapiens; conditions: Homo sapiens, NCI-H23;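 note: cell viability assay measuring growth inhibition of NCI-H23 cells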
Description: SANGER: Inhibition of human NCI-H23 cell growth in a cell viability assay.

QIMR-WIL = format: functional, cell-based, Homo sapiens; conditions: Homo sapiens, QIMR-WIL;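 note: growth inhibition of QIMR-WIL cells, read out with a cell viability assay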
Description: SANGER: Inhibition of human QIMR-WIL cell growth in a cell viability assay.

HCC1187 = format: functional, cell-based, Homo sapiens; conditions: Homo sapiens, HCC1187;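 note: growth inhibition of HCC1187 cells, read out with a cell viability assay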
Description: SANGER: Inhibition of human HCC1187 cell growth in a cell viability assay.

BB30-HNC = format: functional, cell-based, Homo sapiens; conditions: Homo sapiens, BB30-HNC;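 note: growth inhibition of the cultured cell line, read out by a cell viability assay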
Description: SANGER: Inhibition of human BB30-HNC cell growth in a cell viability assay.

MC116 = format: functional, cell-based, Homo sapiens; conditions: Homo sapiens, MC116;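 note: growth inhibition of MC116 cells, read out with a cell viability assay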
Description: SANGER: Inhibition of human MC116 cell growth in a cell viability assay.

EM-2 = format: functional, cell-based, Homo sapiens; conditions: Homo sapiens, EM-2;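 note: growth inhibition of EM-2 cells, read out with a cell viability assay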
Description: SANGER: Inhibition of human EM-2 cell growth in a cell viability assay.

Calu-6 = format: functional, cell-based, Homo sapiens; conditions: Homo sapiens, Calu-6;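 note: growth of human Calu-6 cells, read out by a cell viability assay, IC50 marking inhibition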
Description: SANGER: Inhibition of human Calu-6 cell growth in a cell viability assay.

LS-123 = format: functional, cell-based, Homo sapiens; conditions: Homo sapiens, LS-123
Description: SANGER: Inhibition of human LS-123 cell growth in a cell viability assay.

TE-10 = format: functional, cell-based, Homo sapiens; conditions: Homo sapiens, TE-10;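 note: growth inhibition of TE-10 cells, measured by a cell viability assay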
Description: SANGER: Inhibition of human TE-10 cell growth in a cell viability assay.

HT-144 = format: functional, cell-based, Homo sapiens; conditions: Homo sapiens, HT-144
Description: SANGER: Inhibition of human HT-144 cell growth in a cell viability assay.

TE-5 = format: functional, cell-based, Homo sapiens; conditions: Homo sapiens, TE-5;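 note: inhibition of cell growth, read out by a cell viability assay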
Description: SANGER: Inhibition of human TE-5 cell growth in a cell viability assay.

D-247MG = format: functional, cell-based; conditions: Homo sapiens
Description: SANGER: Inhibition of human D-247MG cell growth in a cell viability assay.

LB831-BLC = format: functional, cell-based, Homo sapiens; conditions: Homo sapiens, LB831-BLC;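 note: growth inhibition of LB831-BLC cells, read out with a cell viability assay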
Description: SANGER: Inhibition of human LB831-BLC cell growth in a cell viability assay.

DOHH-2 = format: functional, cell-based, Homo sapiens; conditions: Homo sapiens, DOHH-2;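 note: growth inhibition of human DOHH-2 cells, read out with a cell viability assay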
Description: SANGER: Inhibition of human DOHH-2 cell growth in a cell viability assay.

SNU-5 = format: functional, cell-based, Homo sapiens; conditions: Homo sapiens, SNU-5;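 note: cell viability readout used to measure growth inhibition in human NCI-SNU-5 cells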
Description: SANGER: Inhibition of human NCI-SNU-5 cell growth in a cell viability assay.

SNB-75 = format: functional, cell-based, Homo sapiens; conditions: Homo sapiens, SNB-75;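 note: cell viability assay measuring growth inhibition of human SNB-75 cells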
Description: SANGER: Inhibition of human SNB75 cell growth in a cell viability assay.

COLO-824 = format: functional, cell-based, Homo sapiens; conditions: Homo sapiens, COLO-824
Description: SANGER: Inhibition of human COLO-824 cell growth in a cell viability assay.

Lu-65 = format: functional, cell-based, Homo sapiens; conditions: Homo sapiens, Lu-65;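 note: growth inhibition of Lu-65 cancer cells, read out by a cell viability assay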
Description: SANGER: Inhibition of human LU-65 cell growth in a cell viability assay.

NB10 = format: functional, cell-based, Homo sapiens; conditions: Homo sapiens, NB10;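 note: growth inhibition of NB10 cells, read out by a cell viability assay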
Description: SANGER: Inhibition of human NB10 cell growth in a cell viability assay.

TE-12 = format: functional, cell-based, Homo sapiens; conditions: Homo sapiens, TE-12;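 note: growth inhibition of TE-12 cells, read out by a cell viability assay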
Description: SANGER: Inhibition of human TE-12 cell growth in a cell viability assay.

SF-539 = format: functional, cell-based, Homo sapiens; conditions: Homo sapiens, SF-539;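 note: Read-out is a cell viability assay, with IC50 reflecting inhibition of cell growth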
Description: SANGER: Inhibition of human SF539 cell growth in a cell viability assay.

JVM-2 = format: functional, cell-based, Homo sapiens; conditions: Homo sapiens, JVM-2;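 note: growth inhibition of JVM-2 cells determined by a cell viability assay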
Description: SANGER: Inhibition of human JVM-2 cell growth in a cell viability assay.

NCI-H747 = format: functional, cell-based, Homo sapiens; conditions: Homo sapiens, NCI-H747;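 note: growth inhibition of human NCI-H747 cells, read out by a cell viability assay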
Description: SANGER: Inhibition of human NCI-H747 cell growth in a cell viability assay.

NCI-H82 = format: functional, cell-based, Homo sapiens; conditions: Homo sapiens, NCI-H82;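 note: growth inhibition of NCI-H82 cells, measured with a cell viability readout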
Description: SANGER: Inhibition of human NCI-H82 cell growth in a cell viability assay.

NTERA-2-cl-D1 = format: functional, cell-based, Homo sapiens; conditions: Homo sapiens, NTERA-2-cl-D1;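 note: inhibition of cell growth, measured with a cell viability assay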
Description: SANGER: Inhibition of human NTERA-S-cl-D1 cell growth in a cell viability assay.

HDLM-2 = format: functional, cell-based, Homo sapiens; conditions: Homo sapiens, HDLM-2;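 note: cell viability assay measuring suppression of HDLM-2 proliferation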
Description: SANGER: Inhibition of human HDLM-2 cell growth in a cell viability assay.

ACN = format: functional, cell-based, Homo sapiens; conditions: Homo sapiens, ACN;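 note: growth inhibition of the human ACN cell line, read out via cell viability testing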
Description: SANGER: Inhibition of human ACN cell growth in a cell viability assay.

TE-11 = format: functional, cell-based; conditions: Homo sapiens;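 note: growth inhibition of human TE-11 cells, read out by a cell viability assay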
Description: SANGER: Inhibition of human TE-11 cell growth in a cell viability assay.

RXF 393 = format: functional, cell-based, Homo sapiens; conditions: Homo sapiens, RXF 393;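 note: growth inhibition of human RXF 393 cells, read out with a cell viability assay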
Description: SANGER: Inhibition of human RXF393 cell growth in a cell viability assay.

Measured: IC50

COC(=O)[C@H](CCSC)NC(=O)c1ccc(NC[C@@H](N)CS)cc1-c1ccccc1
> 1020 nM: all assays above
